From patent US20070049593A1 (priority 2004, published 2007)
Where a name gives a salt, the structure may show the parent alone.

biological target: T1, HCV polymerase (Hepatitis C virus genotype 1b, UniProt P26663); assay: biochemical; parameters: species or system HCV BK strain; settings: not given
T1 construct: a region encoding NS5B (J Virol 1991 March, 65(3), 1105-13, 544 amino acids after deletion of 47 amino acids on the C-terminal); 6xHis (C); made in house; host or cells: Escherichia coli
T1 sequence (P26663 2420-2963): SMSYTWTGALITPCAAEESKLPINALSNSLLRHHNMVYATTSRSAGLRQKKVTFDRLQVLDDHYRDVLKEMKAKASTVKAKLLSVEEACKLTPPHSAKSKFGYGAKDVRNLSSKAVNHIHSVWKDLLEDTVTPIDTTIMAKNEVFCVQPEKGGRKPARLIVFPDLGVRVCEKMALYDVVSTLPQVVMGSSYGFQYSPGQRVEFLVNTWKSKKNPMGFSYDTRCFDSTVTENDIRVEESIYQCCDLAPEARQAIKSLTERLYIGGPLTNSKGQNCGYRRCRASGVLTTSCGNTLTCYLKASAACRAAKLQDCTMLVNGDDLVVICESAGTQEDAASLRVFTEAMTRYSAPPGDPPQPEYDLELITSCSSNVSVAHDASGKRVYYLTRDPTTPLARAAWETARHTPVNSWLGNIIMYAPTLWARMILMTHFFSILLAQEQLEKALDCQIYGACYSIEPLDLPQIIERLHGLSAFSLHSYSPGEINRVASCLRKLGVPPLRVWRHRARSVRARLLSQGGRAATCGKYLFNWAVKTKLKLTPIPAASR
Procedure, shortened: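 His-tagged NS5B (BK strain, 47-aa C-terminal deletion, E. coli-expressed) at 0.5 μg/ml copied 5 μg/ml run-off RNA bearing the HCV 3′ UTR with 2 μM UTP plus [3H]UTP, 50 μM ATP/GTP, in pH 7.5 Tris with 5 mM MgCl2, 25 °C, 90 min. TCA-precipitated RNA was counted and IC50 calculated.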

Structure (SMILES)	IC50 [nM]
COC(=O)CN1CCC(NC(=O)c2ccc3c(C4CCCCC4)c4n(c3c2)CCOc2ccccc2-4)(c2nc3ccccc3[nH]2)CC1 [Example 2-248, methyl (4-(1H-benzimidazol-2-yl)-4-[(12-cyclohexyl-6,7-dihydro-5-oxa-7a-azadibenzo[a,e]azulene-9-carbonyl)amino]piperidin-1-yl]acetate monohydrochloride]	< 100
Cn1c(CNC(=O)c2ccc3c(C4CCCCC4)c4n(c3c2)CCOc2ccccc2-4)nc2ccccc21 [Example 2-249, N-(1-methyl-1H-benzimidazol-2-ylmethyl)-12-cyclohexyl-6,7-dihydro-5-oxa-7a-azadibenzo[a,e]azulene-9-carboxamide]	< 100
O=C(O)Cn1c(CNC(=O)c2ccc3c(C4CCCCC4)c4n(c3c2)CCOc2ccccc2-4)nc2ccccc21 [Example 2-250, (2-{[(12-cyclohexyl-6,7-dihydro-5-oxa-7a-azadibenzo[a,e]azulene-9-carbonyl)amino]methyl}benzimidazol-1-yl)acetic acid]	< 100
COC(=O)Cn1c(CNC(=O)c2ccc3c(C4CCCCC4)c4n(c3c2)CCOc2ccccc2-4)nc2ccccc21 [Example 2-251, methyl (2-{[(12-cyclohexyl-6,7-dihydro-5-oxa-7a-azadibenzo[a,e]azulene-9-carbonyl)amino]methyl}benzimidazol-1-yl)acetate]	< 100
O=C(NCc1nc2ccccc2[nH]1)c1ccc2c(C3CCCCC3)c3n(c2c1)CCOc1ccccc1-3 [Example 2-252, N-(1H-benzimidazol-2-ylmethyl)-12-cyclohexyl-6,7-dihydro-5-oxa-7a-azadibenzo[a,e]azulene-9-carboxamide]	< 100
CC(C)(CN/C=C/C(=O)O)NC(=O)c1ccc2c(C3CCCCC3)c3n(c2c1)CCOc1ccccc1-3 [Example 2-254, (E)-3-{2-[(12-cyclohexyl-6,7-dihydro-5-oxa-7a-azadibenzo[a,e]azulene-9-carbonyl)amino]-2-methylpropylamino}acrylic acid]	100 to 1000
CC(C)(CNc1ccc(C(=O)O)cn1)NC(=O)c1ccc2c(C3CCCCC3)c3n(c2c1)CCOc1ccccc1-3 [Example 2-255, 6-{2-[(12-cyclohexyl-6,7-dihydro-5-oxa-7a-azadibenzo[a,e]azulene-9-carbonyl)amino]-2-methylpropylamino}nicotinic acid]	< 100
O=C(O)c1ccc2c(C3CCCCC3)c3n(c2c1)CCOc1c-3cccc1N(CCOCc1ccccc1)CCN1CCCCC1 [Example 2-256, 4-{N-(2-benzyloxyethyl)-N-[2-(piperidin-1-yl)ethyl]amino}-12-cyclohexyl-6,7-dihydro-5-oxa-7a-azadibenzo[a,e]azulene-9-carboxylic acid dihydrochloride]	< 100
CC(C)OCCN(CCN1CCCCC1)c1cccc2c1OCCn1c-2c(C2CCCCC2)c2ccc(C(=O)O)cc21 [Example 2-257, 12-cyclohexyl-4-(N-(2-isopropoxyethyl)-N-[2-(piperidin-1-yl)ethyl]amino}-6,7-dihydro-5-oxa-7a-azadibenzo[a,e]azulene-9-carboxylic acid dihydrochloride]	< 100
Cc1nc(C(C)(C)NC(=O)c2ccc3c(C4CCCCC4)c4n(c3c2)CCOc2ccccc2-4)[nH]c1C [Example 2-258, N-[1-(4,5-dimethyl-1H-imidazol-2-yl)-1-methylethyl]-12-cyclohexyl-6,7-dihydro-5-oxa-7a-azadibenzo[a,e]azulene-9-carboxamide]	< 100
Cc1nc(C(C)(C)NC(=O)c2ccc3c(C4CCCCC4)c4n(c3c2)CCOc2ccccc2-4)n(C)c1C [Example 2-259, N-[1-methyl-1-(1,4,5-trimethyl-1H-imidazol-2-yl)ethyl]-12-cyclohexyl-6,7-dihydro-5-oxa-7a-azadibenzo[a,e]azulene-9-carboxamide]	< 100
CC(C)(NC(=O)c1ccc2c(C3CCCCC3)c3n(c2c1)CCOc1ccccc1-3)C(=O)Nc1cccc(O)c1 [Example 2-260, N-[1-(3-hydroxyphenylcarbamoyl)-1-methylethyl]-12-cyclohexyl-6,7-dihydro-5-oxa-7a-azadibenzo[a,e]azulene-9-carboxamide]	< 100
O=C(O)c1ccc2c(C3CCCCC3)c3n(c2c1)CCOc1c-3cccc1N(CCO)CCN1CCCCC1 [Example 2-261, 12-cyclohexyl-4-{N-(2-hydroxyethyl)-N-[2-(piperidin-1-yl)ethyl]amino}-6,7-dihydro-5-oxa-7a-azadibenzo[a,e]azulene-9-carboxylic acid dihydrochloride]	< 100
COc1ccc2c(c1)OCCn1c-2c(C2CCCCC2)c2ccc(C(=O)N[C@@H](Cc3ccc(O)cc3)C(=O)N(C)C)cc21 [Example 2-262, N—[(S)-1-dimethylcarbamoyl-2-(4-hydroxyphenyl)ethyl]-12-cyclohexyl-3-methoxy-6,7-dihydro-5-oxa-7a-azadibenzo[a,e]azulene-9-carboxamide]	< 100
CNC(=O)[C@H](Cc1ccc(O)cc1)NC(=O)c1ccc2c(C3CCCCC3)c3n(c2c1)CCOc1cc(OC)ccc1-3 [Example 2-263, N—[(S)-2-(4-hydroxyphenyl)-1-(methylcarbamoyl)ethyl]-12-cyclohexyl-3-methoxy-6,7-dihydro-5-oxa-7a-azadibenzo[a,e]azulene-9-carboxamide]	< 100
COC(=O)Cn1c(C(C)(C)NC(=O)c2ccc3c(C4CCCCC4)c4n(c3c2)CCOc2ccccc2-4)nc(C)c1C [Example 2-264, methyl (2-{1-[(12-cyclohexyl-6,7-dihydro-5-oxa-7a-azadibenzo[a,e]azulene-9-carbonyl)amino]-1-methylethyl}-4,5-dimethylimidazol-1-yl)acetate]	< 100
Cc1nc(C(C)(C)NC(=O)c2ccc3c(C4CCCCC4)c4n(c3c2)CCOc2ccccc2-4)n(CC(=O)O)c1C [Example 2-265, (2-{1-[(12-cyclohexyl-6,7-dihydro-5-oxa-7a-azadibenzo[a,e]azulene-9-carbonyl)amino]-1-methylethyl}-4,5-dimethylimidazol-1-yl)acetic acid]	100 to 1000
COC(=O)c1ccc2nc(NC(=O)c3ccc4c(C5CCCCC5)c5n(c4c3)CCOc3ccccc3-5)[nH]c2c1 [Example 2-266, methyl 2-[(12-cyclohexyl-6,7-dihydro-5-oxa-7a-azadibenzo[a,e]azulene-9-carbonyl)amino]-3H-benzimidazole-5-carboxylate]	100 to 1000
O=C(Nc1nc2ccccc2[nH]1)c1ccc2c(C3CCCCC3)c3n(c2c1)CCOc1ccccc1-3 [Example 2-267, N-(1H-benzimidazol-2-yl)-12-cyclohexyl-6,7-dihydro-5-oxa-7a-azadibenzo[a,e]azulene-9-carboxamide]	100 to 1000
O=C(O)c1ccc2nc(NC(=O)c3ccc4c(C5CCCCC5)c5n(c4c3)CCOc3ccccc3-5)[nH]c2c1 [Example 2-268, 2-[(12-cyclohexyl-6,7-dihydro-5-oxa-7a-azadibenzo[a,e]azulene-9-carbonyl)amino]-3H-benzimidazole-5-carboxylic acid]	100 to 1000
CC(C)(NC(=O)c1ccc2c(C3CCCCC3)c3n(c2c1)CCOc1ccccc1-3)c1nc2ccc(C#N)cc2[nH]1 [Example 2-269, N-[1-(6-cyano-1H-benzimidazol-2-yl)-1-methylethyl]-12-cyclohexyl-6,7-dihydro-5-oxa-7a-azadibenzo[a,e]azulene-9-carboxamide]	< 100
COC(=O)[C@@H](NC(=O)c1ccc2c(C3CCCCC3)c3n(c2c1)CCOc1cc(OC)ccc1-3)c1ccc(O)cc1 [Example 2-270, methyl (S)-2-[(12-cyclohexyl-3-methoxy-6,7-dihydro-5-oxa-7a-azadibenzo[a,e]azulene-9-carbonyl)amino]-2-(4-hydroxyphenyl)acetate]	< 100
COC(=O)[C@H](NC(=O)c1ccc2c(C3CCCCC3)c3n(c2c1)CCOc1cc(OC)ccc1-3)c1ccc(O)cc1 [Example 2-271, methyl (R)-2-[(12-cyclohexyl-3-methoxy-6,7-dihydro-5-oxa-7a-azadibenzo[a,e]azulene-9-carbonyl)amino]-2-(4-hydroxyphenyl)acetate]	< 100
CCN(CCN1CCC(OC)CC1)c1cccc2c1OCCn1c-2c(C2CCCCC2)c2ccc(C(=O)O)cc21 [Example 2-272, 12-cyclohexyl-4-{N-ethyl-N-[2-(4-methoxypiperidin-1-yl)ethyl]amino}-6,7-dihydro-5-oxa-7a-azadibenzo[a,e]azulene-9-carboxylic acid dihydrochloride]	< 100
O=C(O)c1ccc2c(C3CCCCC3)c3n(c2c1)CCOc1c(-c2ccccc2)cccc1-3 [Example 2-273, 12-cyclohexyl-4-phenyl-6,7-dihydro-5-oxa-7a-azadibenzo[a,e]azulene-9-carboxylic acid]	< 100
CCN(CCN1CCCC(COC)C1)c1cccc2c1OCCn1c-2c(C2CCCCC2)c2ccc(C(=O)O)cc21 (stereo not shown) [Example 2-274, 12-cyclohexyl-4-{N-ethyl-N-[2-(3-methoxymethylpiperidin-1-yl)ethyl]amino}-6,7-dihydro-5-oxa-7a-azadibenzo[a,e]azulene-9-carboxylic acid dihydrochloride]	< 100
CCN(CCN1CCC(COC)CC1)c1cccc2c1OCCn1c-2c(C2CCCCC2)c2ccc(C(=O)O)cc21 [Example 2-275, 12-cyclohexyl-4-{N-ethyl-N-[2-(4-methoxymethylpiperidin-1-yl)ethyl]amino}-6,7-dihydro-5-oxa-7a-azadibenzo[a,e]azulene-9-carboxylic acid dihydrochloride]	< 100

same assay, conditions: read-out: HCV polymerase inhibitory activity IC50; 25° C., 90 min; [5,6-3H]UTP incorporation into RNA

Structure (SMILES)	IC50 [nM]
O=C(NC(Cc1c[nH]c2ccc(O)cc12)C(=O)O)c1ccc2c(C3CCCCC3)c3n(c2c1)CCOc1ccccc1-3 (stereo not shown) [Example 2-253]	< 100
